Results taken from patent US20240158426A1, “TRANSITION METAL COMPLEX CONTAINING TETRADENTATE NITROGEN DONOR LIGAND AND ELECTROCHEMICAL BIOSENSOR COMPRISING SAME” (I-sens, Inc., priority 2020, published 2024).

Test: Cyclic voltammetry (CV) of TPMA-based osmium complexes
Details: Cl^− counter ion form; Ag/AgCl reference electrode; scanning rate 10 mV/s
Experimental: In order to analyze electrochemical properties of the synthesized TPMA-based osmium complexes, cyclic voltammetry (CV) was used. A well-washed carbon glass electrode with a diameter of 3 mm was used as a working electrode, and an Ag/AgCl electrode was used as a reference electrode, and a Pt electrode was used as a counter electrode to measure it at a scanning rate of 10 mV/s. […] In order to find out only the position of the redox peak, the complex in a Cl^− counter ion form was measured in condition that the concentration of each substance was not constant, by measuring the Cl^− substance in a solution state during the anion exchange process. […] The change in the oxidation/reduction potential according to the type of the substituent and coordinated ligand was analyzed centering on the present complex.

- oxidation/reduction potential E1/2: −0.339 V
Substance: [Os(TPMA)Cl2]^+(PF6^−) [Complex 18]
